Reference: PubChem BioAssay AID322 (DTP/NCI, 2004)
“And” between values parts separate entries of the source, which are not always exact repeats. Identical values can stand only once. Inconclusive results and toxic doses are left out. *1 amine or outer side, *2 acyl side, *3 side chain or, on linkers, in order; H or OH if unused. Where a SMILES comes first, the peptide text is derived from it. Bridges are numbered along the chain shown (N, C = ends). Roman numbers before positions name the chains, in order. [ ]: non-standard residue; d: D form. Actinocin(9to1) = Cc1c2oc3c(C)ccc(C(=O)[*:1])c3nc-2c(C(=O)[*:2])c(N)c1=O; aThr = C[C@H](O)[C@H](N)C(=O)O; NMeV = CN[C@H](C(=O)O)C(C)C; Sar = CNCC(=O)O

System: CD2F1 mice, P388/ADR leukemia ip, median survival T/C
Test: NCI In Vivo Anticancer Drug Screen. Data for tumor model P388 Leukemia resistant to Adriamycin; NSC 123127, Developed at Scr 08 (intraperitoneal) in CD2F1 (CDF1) mice
Settings: endpoint: median survival time, higher = longer survival
Procedure: The antitumor activity of compounds was measured in mice bearing transplantable tumors. Survival or tumor size were measured and the results are expressed as the measurement made in the treated group (T) divided by the measurement made in the vehicle treated control group (C). The tumor model used in this assay is P388 Leukemia resistant to Adriamycin; NSC 123127, Developed at Scr 08 (intraperitoneal) in CD2F1 (CDF1) mice

[1] = dose: 50.0 mg/kg/injection, schedule: Q01DX005 (ip), vehicle: saline with Tween-80

With `Cc1c2oc3c(C)ccc(C(=O)N[C@@H]4C(=O)N[C@H](C(C)C)C(=O)N5CCC[C@H]5C(=O)N(C)CC(=O)N(C)[C@@H](C(C)C)C(=O)O[C@H]4C)c3nc-2c(C(=O)N[C@@H]2C(=O)N[C@H](C(C)C)C(=O)N3CCC[C@H]3C(=O)N(C)CC(=O)N(C)[C@@H](C(C)C)C(=O)O[C@H]2C)c(N)c1=O` (I: [aThr][dV]P[Sar][NMeV] / II: [aThr][dV]P[Sar][NMeV]; ester I:1-I:C, II:1-II:C; linker I:N-II:N via Actinocin(9to1)) the T/C (dose: 25.0 micrograms/kg/injection, schedule: Q01DX005 (ip), vehicle: saline + alcohol) was 124 % of control, the T/C (dose: 50.0 micrograms/kg/injection, schedule: Q01DX005 (ip), vehicle: saline + alcohol) was 120 % of control and the T/C (dose: 100.0 micrograms/kg/injection, schedule: Q01DX005 (ip), vehicle: saline + alcohol) was 101 % of control.
In the case of `C[C@H](N)C(=O)N[C@@H]1[C@H]2C(=C(O)C[C@@H](O)[C@@H]2O)C(=O)O[C@@H]1C`, the T/C (dose: 150.0 mg/kg/injection, schedule: Q01DX005 (ip), vehicle: saline) is reported as 100 % of control and 105 % of control, the T/C (dose: 300.0 mg/kg/injection, schedule: Q01DX005 (ip), vehicle: saline) is reported as 100 % of control and 104 % of control and the T/C (dose: 600.0 mg/kg/injection, schedule: Q01DX005 (ip), vehicle: saline) is reported as 98 % of control and 105 % of control. The T/C (dose: 1200.0 mg/kg/injection, schedule: Q01DX005 (ip), vehicle: saline) was 97 % of control and 103 % of control.
`C=C1c2cccc(O)c2C(O)=C2C(=O)[C@]3(O)C(O)=C(C(N)=O)C(=O)[C@@H](N(C)C)[C@@H]3[C@@H](O)[C@H]12` was tested, and the T/C (dose: 21.6 mg/kg/injection, schedule: Q01DX005 (ip), vehicle: Klucel (hydroxypropylcellulose) (HPC)) was 114 % of control, the T/C (dose: 25.0 mg/kg/injection, schedule: Q01DX005 (ip), vehicle: Klucel (hydroxypropylcellulose) (HPC)) was 109 % of control and the T/C (dose: 36.0 mg/kg/injection, schedule: Q01DX005 (ip), vehicle: Klucel (hydroxypropylcellulose) (HPC)) was 97 % of control and 100 % of control. The T/C (dose: 50.0 mg/kg/injection, schedule: Q01DX005 (ip), vehicle: Klucel (hydroxypropylcellulose) (HPC)) was 118 % of control, the T/C (dose: 60.0 mg/kg/injection, schedule: Q01DX005 (ip), vehicle: Klucel (hydroxypropylcellulose) (HPC)) was 226 % of control and 100 % of control and the T/C (dose: 100.0 mg/kg/injection, schedule: Q01DX005 (ip), vehicle: Klucel (hydroxypropylcellulose) (HPC)) was 99 % of control and 112 % of control. The T/C (dose: 166.66 mg/kg/injection, schedule: Q01DX005 (ip), vehicle: Klucel (hydroxypropylcellulose) (HPC)) was 117 % of control and the T/C (dose: 200.0 mg/kg/injection, schedule: Q01DX005 (ip), vehicle: Klucel (hydroxypropylcellulose) (HPC)) was 119 % of control.
With `CC[C@]1(O)C[C@H]2CN(CCc3c([nH]c4ccccc34)[C@@](C(=O)OC)(c3cc4c(cc3OC)N(C=O)[C@H]3[C@@](O)(C(=O)OC)[C@H](OC(C)=O)[C@]5(CC)C=CCN6CC[C@]43[C@@H]65)C2)C1` the T/C (dose: 0.43 mg/kg/injection, schedule: Q04DX002 (ip), vehicle: saline) was 109 % of control, the T/C (dose: 0.72 mg/kg/injection, schedule: Q04DX002 (ip), vehicle: saline) was 111 % of control and the T/C (dose: 1.2 mg/kg/injection, schedule: Q04DX002 (ip), vehicle: saline) was 109 % of control. For the same molecule, the T/C (dose: 2.0 mg/kg/injection, schedule: Q04DX002 (ip), vehicle: saline) was 103 % of control and the T/C (dose: 3.33 mg/kg/injection, schedule: Q04DX002 (ip), vehicle: saline) was 115 % of control.
For `O=C1C=CC2OC(c3ccccc3)C(O)C2O1` (configuration not stated), the T/C (dose: 6.25 mg/kg/injection, schedule: Q01DX005 (ip), vehicle: saline with Tween-80) was 101 % of control, the T/C (dose: 12.5 mg/kg/injection, schedule: Q01DX005 (ip), vehicle: saline with Tween-80) was 114 % of control and the T/C [1] was 119 % of control.
`Nc1ccc2ccc(NS(=O)(=O)N3CCCCC3)cc2c1` was tested, and the T/C (dose: 25.0 mg/kg/injection, schedule: Q01DX005 (ip), vehicle: saline with Tween-80) was 111 % of control, the T/C [1] was 107 % of control and the T/C (dose: 100.0 mg/kg/injection, schedule: Q01DX005 (ip), vehicle: saline with Tween-80) was 106 % of control. For the same molecule, the T/C (dose: 200.0 mg/kg/injection, schedule: Q01DX005 (ip), vehicle: saline with Tween-80) was 101 % of control and the T/C (dose: 400.0 mg/kg/injection, schedule: Q01DX005 (ip), vehicle: saline with Tween-80) was 99 % of control.
With `CNC(=O)OCc1nc(SC)n(C)c1COC(=O)NC` the T/C (dose: 30.0 mg/kg/injection, schedule: Q01DX005 (ip), vehicle: saline) was 155 % of control, the T/C (dose: 40.0 mg/kg/injection, schedule: Q01DX005 (ip), vehicle: saline) was 154 % of control and the T/C (dose: 50.0 mg/kg/injection, schedule: Q01DX005 (ip), vehicle: saline) was 158 % of control. For the same molecule, the T/C (dose: 51.0 mg/kg/injection, schedule: Q01DX005 (ip), vehicle: saline) was 163 % of control, the T/C (dose: 65.0 mg/kg/injection, schedule: Q01DX005 (ip), vehicle: saline) was 155 % of control and the T/C (dose: 77.0 mg/kg/injection, schedule: Q01DX005 (ip), vehicle: saline) was 91 % of control.
In the case of `CO[C@H](/C(C)=C/C=C/C(C)=C/c1coc(C)n1)[C@H](C)[C@H]1C[C@@H](O)[C@@]2(C)O[C@H]2/C=C/[C@@H](C)[C@@H]2C[C@@H](CC(=O)O2)C[C@H]2O[C@@H]2C(=O)O1`, the T/C (dose: 0.04 mg/kg/injection, schedule: Q01DX005 (ip), vehicle: Klucel (hydroxypropylcellulose) (HPC)) is reported as 105 % of control, the T/C (dose: 0.06 mg/kg/injection, schedule: Q01DX005 (ip), vehicle: Klucel (hydroxypropylcellulose) (HPC)) is reported as 109 % of control and 113 % of control and the T/C (dose: 0.08 mg/kg/injection, schedule: Q01DX005 (ip), vehicle: Klucel (hydroxypropylcellulose) (HPC)) is reported as 114 % of control. The T/C (dose: 0.09 mg/kg/injection, schedule: Q01DX005 (ip), vehicle: Klucel (hydroxypropylcellulose) (HPC)) was 112 % of control, the T/C (dose: 0.1 mg/kg/injection, schedule: Q01DX005 (ip), vehicle: Klucel (hydroxypropylcellulose) (HPC)) was 117 % of control and the T/C (dose: 0.12 mg/kg/injection, schedule: Q01DX005 (ip), vehicle: Klucel (hydroxypropylcellulose) (HPC)) was 97 % of control. The T/C (dose: 0.13 mg/kg/injection, schedule: Q01DX005 (ip), vehicle: Klucel (hydroxypropylcellulose) (HPC)) was 109 % of control, the T/C (dose: 0.14 mg/kg/injection, schedule: Q01DX005 (ip), vehicle: Klucel (hydroxypropylcellulose) (HPC)) was 96 % of control and the T/C (dose: 0.16 mg/kg/injection, schedule: Q01DX005 (ip), vehicle: Klucel (hydroxypropylcellulose) (HPC)) was 107 % of control. For the same molecule, the T/C (dose: 0.2 mg/kg/injection, schedule: Q01DX005 (ip), vehicle: Klucel (hydroxypropylcellulose) (HPC)) was 102 % of control.
With `O=CC(CO)CC(C=O)n1cnc2c(=O)[nH]cnc21` (configuration not stated) the T/C (dose: 25.0 mg/kg/injection, schedule: Q01DX005 (ip), vehicle: saline) was 122 % of control and 124 % of control, the T/C (dose: 100.0 mg/kg/injection, schedule: Q01DX005 (ip), vehicle: saline) was 151 % of control and the T/C (dose: 200.0 mg/kg/injection, schedule: Q01DX005 (ip), vehicle: saline) was 160 % of control and 170 % of control. For the same molecule, the T/C (dose: 400.0 mg/kg/injection, schedule: Q01DX005 (ip), vehicle: saline) was 169 % of control and 170 % of control.
In the case of `N[C@@H](Cc1ccc(N(CCCl)CCCl)cc1)C(=O)O`, the T/C (dose: 0.5 mg/kg/injection, schedule: Q01DX005 (ip), vehicle: saline) is reported as 171 % of control and 202 % of control, the T/C (dose: 1.0 mg/kg/injection, schedule: Q01DX005 (ip), vehicle: saline) is reported as 200 % of control and 202 % of control and the T/C (dose: 1.62 mg/kg/injection, schedule: Q04DX003 (ip), vehicle: water) is reported as 207 % of control. The T/C (dose: 2.0 mg/kg/injection, schedule: Q01DX005 (ip), vehicle: saline) was 202 % of control and 297 % of control, the T/C (dose: 2.7 mg/kg/injection, schedule: Q04DX003 (ip), vehicle: water) was 215 % of control and the T/C (dose: 4.0 mg/kg/injection, schedule: Q01DX005 (ip), vehicle: saline) was 202 % of control and 297 % of control. The T/C (dose: 4.5 mg/kg/injection, schedule: Q04DX003 (ip), vehicle: water) was 290 % of control, the T/C (dose: 7.5 mg/kg/injection, schedule: Q04DX003 (ip), vehicle: water) was 109 % of control and the T/C (dose: 8.0 mg/kg/injection, schedule: Q01DX005 (ip), vehicle: saline) was 297 % of control. The T/C (dose: 12.5 mg/kg/injection, schedule: Q04DX003 (ip), vehicle: water) was 95 % of control.
For `CCOc1ccc(-c2nc3ccc(-c4nc5ccc(N6CCN(C)CC6)cc5[nH]4)cc3[nH]2)cc1`, the T/C (dose: 1.56 mg/kg/injection, schedule: Q01DX005 (ip), vehicle: water) was 109 % of control, the T/C (dose: 3.12 mg/kg/injection, schedule: Q01DX005 (ip), vehicle: water) was 106 % of control and the T/C (dose: 6.25 mg/kg/injection, schedule: Q01DX005 (ip), vehicle: water) was 107 % of control. The T/C (dose: 12.5 mg/kg/injection, schedule: Q01DX005 (ip), vehicle: water) was 91 % of control.
